The text below walks through data of article PMC5484777 (Journal of medicinal chemistry, 2016).

For one data set, the target named is GluN1/2D receptors (Rattus norvegicus, UniProt P35439+Q62645). The format is cell-based.
In another data set the target is GluN1/2B receptors (Rattus norvegicus, UniProt P35439+Q00960). The format is cell-based.
In data set [1] the target is GluN1/2A receptors (Rattus norvegicus, UniProt P35439+Q00959). In kind it is cell-based.
The target of data set [2] is GluN1/2A receptors (Rattus norvegicus, UniProt Q00959). In kind it is cell-based. As to conditions: ratio est Ki GluN1/2B / GluN1/2A.
GluN1/2A receptors (Rattus norvegicus, UniProt Q00959), sequence (Q00959 23-1464, other chains not shown): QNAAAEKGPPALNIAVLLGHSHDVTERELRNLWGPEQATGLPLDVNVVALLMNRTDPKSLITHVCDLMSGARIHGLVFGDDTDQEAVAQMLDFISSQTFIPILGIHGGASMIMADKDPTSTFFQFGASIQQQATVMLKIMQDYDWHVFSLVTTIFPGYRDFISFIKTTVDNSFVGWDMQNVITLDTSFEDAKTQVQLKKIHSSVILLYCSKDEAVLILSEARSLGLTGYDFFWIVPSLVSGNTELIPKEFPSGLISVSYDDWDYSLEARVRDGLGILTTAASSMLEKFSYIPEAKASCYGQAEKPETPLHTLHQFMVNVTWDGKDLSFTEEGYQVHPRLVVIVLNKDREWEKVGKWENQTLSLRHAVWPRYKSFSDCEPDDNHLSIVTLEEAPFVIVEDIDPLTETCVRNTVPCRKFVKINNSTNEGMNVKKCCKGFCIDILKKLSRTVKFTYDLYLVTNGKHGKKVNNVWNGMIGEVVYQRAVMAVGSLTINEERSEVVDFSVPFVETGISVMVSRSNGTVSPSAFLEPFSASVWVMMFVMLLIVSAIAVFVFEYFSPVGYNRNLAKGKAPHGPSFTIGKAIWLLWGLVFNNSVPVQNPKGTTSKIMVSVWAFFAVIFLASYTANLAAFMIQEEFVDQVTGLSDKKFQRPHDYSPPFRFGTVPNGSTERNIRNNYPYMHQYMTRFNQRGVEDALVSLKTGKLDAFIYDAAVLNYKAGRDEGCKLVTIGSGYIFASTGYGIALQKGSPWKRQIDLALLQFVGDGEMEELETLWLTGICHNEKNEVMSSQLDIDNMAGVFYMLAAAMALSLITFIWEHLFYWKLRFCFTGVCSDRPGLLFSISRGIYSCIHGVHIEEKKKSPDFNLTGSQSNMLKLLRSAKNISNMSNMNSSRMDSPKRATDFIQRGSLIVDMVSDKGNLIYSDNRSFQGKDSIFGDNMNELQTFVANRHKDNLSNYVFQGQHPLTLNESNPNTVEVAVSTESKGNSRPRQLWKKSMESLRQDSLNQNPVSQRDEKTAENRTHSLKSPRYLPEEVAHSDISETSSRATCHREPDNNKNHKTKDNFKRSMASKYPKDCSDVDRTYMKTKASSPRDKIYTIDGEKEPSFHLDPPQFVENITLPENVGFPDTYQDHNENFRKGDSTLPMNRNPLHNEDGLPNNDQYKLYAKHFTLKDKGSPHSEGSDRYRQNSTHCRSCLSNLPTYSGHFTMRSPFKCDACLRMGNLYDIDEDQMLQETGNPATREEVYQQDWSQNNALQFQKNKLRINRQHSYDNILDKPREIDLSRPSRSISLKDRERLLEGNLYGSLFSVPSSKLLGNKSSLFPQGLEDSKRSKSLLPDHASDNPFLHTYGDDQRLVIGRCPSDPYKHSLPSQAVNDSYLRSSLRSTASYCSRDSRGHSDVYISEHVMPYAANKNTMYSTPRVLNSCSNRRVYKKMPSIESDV
A further data set concerns the target GluN1/2C receptors (Rattus norvegicus, UniProt P35439+Q00961). In kind it is cell-based.
A further data set can be described thus: In vivo PET-CT imaging. Also on record: species or system female athymic nude mice. Particulars: intravenous bolus, dynamic PET, mice.
A short description of data set [3]: Ex vivo brain autoradiography. The format is in vivo, female athymic nude mice. Particulars: serial brain sections.
A short description of data set [4]: Ex vivo brain biodistribution and autoblockade of [11C]11e. The format is in vivo, CD-1 mice. Particulars: 15–75 min uptake, IV, mice (Figure 4A,B).
A further data set deals with GluN1/2A. As to conditions: cited from earlier work.

“Also recorded” adds a separate entry of the source.

GluN1/2D receptors, sequence (Q62645 28-1323, other chains not shown): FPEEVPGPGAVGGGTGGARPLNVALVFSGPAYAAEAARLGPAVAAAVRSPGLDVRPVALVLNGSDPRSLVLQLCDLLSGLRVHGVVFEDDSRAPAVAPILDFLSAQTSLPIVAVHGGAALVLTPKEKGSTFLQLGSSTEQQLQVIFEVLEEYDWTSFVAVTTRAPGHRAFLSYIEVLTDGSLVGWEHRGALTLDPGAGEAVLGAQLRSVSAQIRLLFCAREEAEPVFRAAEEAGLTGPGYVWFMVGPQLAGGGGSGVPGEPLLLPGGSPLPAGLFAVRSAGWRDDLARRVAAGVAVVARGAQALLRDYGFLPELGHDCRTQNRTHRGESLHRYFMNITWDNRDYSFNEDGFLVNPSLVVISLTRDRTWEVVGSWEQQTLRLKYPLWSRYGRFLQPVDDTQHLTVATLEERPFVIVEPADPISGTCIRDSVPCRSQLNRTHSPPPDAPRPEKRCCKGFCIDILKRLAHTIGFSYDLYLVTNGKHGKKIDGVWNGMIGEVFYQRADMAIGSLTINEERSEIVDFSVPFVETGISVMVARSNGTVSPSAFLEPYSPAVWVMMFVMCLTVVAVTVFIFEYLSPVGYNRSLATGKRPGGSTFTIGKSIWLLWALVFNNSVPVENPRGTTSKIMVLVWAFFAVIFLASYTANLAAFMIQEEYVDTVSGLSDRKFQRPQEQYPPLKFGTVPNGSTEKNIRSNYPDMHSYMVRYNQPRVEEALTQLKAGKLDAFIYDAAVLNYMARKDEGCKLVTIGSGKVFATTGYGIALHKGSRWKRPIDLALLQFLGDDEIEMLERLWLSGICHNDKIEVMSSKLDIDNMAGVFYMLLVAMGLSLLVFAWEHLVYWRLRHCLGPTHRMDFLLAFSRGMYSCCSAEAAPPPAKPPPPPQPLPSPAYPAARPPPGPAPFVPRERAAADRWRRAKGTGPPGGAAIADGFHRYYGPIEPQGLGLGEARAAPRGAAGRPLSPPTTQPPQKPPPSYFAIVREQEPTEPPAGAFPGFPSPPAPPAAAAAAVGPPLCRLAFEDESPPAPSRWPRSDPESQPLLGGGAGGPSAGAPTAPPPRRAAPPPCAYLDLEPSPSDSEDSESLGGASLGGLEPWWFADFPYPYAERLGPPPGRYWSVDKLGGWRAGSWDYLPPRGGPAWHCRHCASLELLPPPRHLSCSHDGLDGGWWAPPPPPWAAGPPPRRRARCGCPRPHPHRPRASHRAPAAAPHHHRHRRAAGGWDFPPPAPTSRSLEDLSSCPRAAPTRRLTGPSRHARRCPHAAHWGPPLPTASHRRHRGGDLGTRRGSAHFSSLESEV
GluN1/2A receptors (Rattus norvegicus, UniProt P35439+Q00959), sequence (Q00959 23-1464, other chains not shown): as the sequence (Q00959 23-1464, other chains not shown) above

One may read the Ki as the dissociation constant of the complex between target and ligand, obtained from inhibition or displacement. A low value points to tighter binding. Usually IC50 stands for the concentration that gives 50% inhibition. A high value points to weaker potency. `Cc1ccc(N2N=C(C(=O)O)C[C@@H]2C[C@@H](N)C(=O)O)cc1` [4e, (S)-5-((R)-2-Amino-2-carboxyethyl)-1-p-tolyl-4,5-dihydro-1H-pyrazole-3-carboxylic Acid]: the inhibition constant Ki was 440 ± 20 nM at GluN1/2D receptors, 250 ± 20 nM at GluN1/2B receptors, 48 ± 3 nM on GluN1/2A receptors [1] and 96 ± 5 nM on GluN1/2C receptors. For the same molecule, the IC50 against GluN1/2B receptors is 690 ± 50 nM; at GluN1/2A receptors [1] it was 180 ± 10 nM; at GluN1/2C receptors, 380 ± 20 nM. Besides, on GluN1/2A receptors [2], the “estimated Ki fold higher at GluN1/2B compared to GluN1/2A (selectivity)” value (“estimated Ki fold higher … (selectivity)” for short) was 5.3 fold.
In the case of `COC(=O)C1=NN(c2ccc([124I])cc2)[C@@H](C[C@@H](N)C(=O)OC)C1` [[^124I]11d, Methyl (S)-5-((R)-2-Amino-3-methoxy-3-oxopropyl)-1-(4-[^124I]-iodophenyl)-4,5-dihydro-1H-pyrazole-3-carboxylate], in the data set “In vivo PET-CT imaging”, the “brain uptake by in vivo PET imaging” value is recorded as “below the threshold of detection; also recorded: no observable brain uptake”.
As to `N[C@H](C[C@H]1CC(C(=O)O)=NN1c1ccc(I)cc1)C(=O)O` [4d, (S)-5-((R)-2-Amino-2-carboxyethyl)-1-(4-iodophenyl)-4,5-dihydro-1H-pyrazole-3-carboxylic Acid], the IC50 against GluN1/2B receptors was 700 ± 40 nM; on GluN1/2A receptors [1], 910 ± 80 nM; against GluN1/2C receptors, 560 ± 20 nM. Also, the Ki was 270 ± 20 nM on GluN1/2B receptors, 250 ± 20 nM on GluN1/2A receptors [1] and 140 ± 10 nM at GluN1/2C receptors.
With `N[C@H](C[C@H]1CC(C(=O)O)=NN1c1ccc([125I])cc1)C(=O)O` [[^125I]4d, (S)-5-((R)-2-Amino-2-carboxyethyl)-1-(4-[^125I]iodophenyl)-4,5-dihydro-1H-pyrazole-3-carboxylic Acid], in data set [3] (60 min conscious uptake), the “brain uptake (ex vivo autoradiography)” value was “no evidence of brain uptake”.
For `COC(=O)C1=NN(c2ccc([125I])cc2)[C@@H](C[C@@H](N)C(=O)OC)C1` [[^125I]11d, Methyl (S)-5-((R)-2-Amino-3-methoxy-3-oxopropyl)-1-(4-[^125I]-iodophenyl)-4,5-dihydro-1H-pyrazole-3-carboxylate], the “brain uptake (ex vivo autoradiography)” value in data set [3] (40 min conscious uptake) is “brain region-selective uptake”.
In the case of `COC(=O)C1=NN(c2ccc([11CH3])cc2)[C@@H](C[C@@H](NC(=O)OC(C)(C)C)C(=O)OC)C1` [[^11C]11e, Methyl (S)-5-((R)-2-((tert-Butoxycarbonyl)amino)-3-methoxy-3-oxopropyl)-1-(4-[^11C]methylphenyl)-4,5-dihydro-1H-pyrazole-3-carboxylate], the “uptake in brain regions” value in [4] is recorded as “below 1.5 % ID/g”.
As to `N[C@H](C[C@H]1CC(C(=O)O)=NN1c1ccc(Br)cc1)C(=O)O` [4c, (S)-5-((R)-2-Amino-2-carboxyethyl)-1-(4-bromophenyl)-4,5-dihydro-1H-pyrazole-3-carboxylic Acid], the IC50 was 630 ± 40 nM against GluN1/2D receptors, 250 ± 20 nM against GluN1/2B receptors, 91 ± 4 nM against GluN1/2A receptors [1] and 190 ± 10 nM at GluN1/2C receptors. Besides, the Ki stood at 200 ± 10 nM on GluN1/2D receptors, 94 ± 7 nM on GluN1/2B receptors, 25 ± 1 nM on GluN1/2A receptors [1] and 47 ± 3 nM on GluN1/2C receptors.
Regarding `N[C@H](C[C@H]1CC(C(=O)O)=NN1c1ccc(F)cc1)C(=O)O` [4a, (S)-5-((R)-2-Amino-2-carboxyethyl)-1-(4-fluorophenyl)-4,5-dihydro-1H-pyrazole-3-carboxylic Acid], the IC50 was determined as 920 ± 20 nM against GluN1/2D receptors, 860 ± 10 nM on GluN1/2B receptors, 160 ± 10 nM on GluN1/2A receptors [1] and 920 ± 20 nM against GluN1/2C receptors. In addition, the Ki was 290 ± 10 nM at GluN1/2D receptors, 330 ± 40 nM on GluN1/2B receptors, 43 ± 2 nM at GluN1/2A receptors [1] and 230 ± 10 nM at GluN1/2C receptors. The “estimated Ki fold higher … (selectivity)” value at GluN1/2A receptors [2] was 7.6 fold.
In the case of `C[C@H](N[C@@H](c1cccc2[nH]c(=O)c(=O)[nH]c12)P(=O)(O)O)c1ccc(Br)cc1` [NVP-AAM077, [(R)-[(S)-1-(4-bromophenyl)-ethylamino]-(2,3-dioxo-1,2,3,4-tetrahydroquinoxalin-5-yl)-methyl]-phosphonic acid], the “binding affinity fold higher for GluN1/2A compared to GluN1/2B” value in the data set with GluN1/2A is 5.2 fold.
Turning to `N[C@H](C[C@H]1CC(C(=O)O)=NN1c1ccc(Cl)cc1)C(=O)O` [4b, (S)-5-((R)-2-Amino-2-carboxyethyl)-1-(4-chlorophenyl)-4,5-dihydro-1H-pyrazole-3-carboxylic Acid], the IC50 worked out at 520 ± 20 nM on GluN1/2D receptors, 280 ± 20 nM against GluN1/2B receptors, 98 ± 4 nM against GluN1/2A receptors [1] and 180 ± 10 nM against GluN1/2C receptors. For the same molecule, the Ki on GluN1/2D receptors amounted to 160 ± 10 nM; on GluN1/2B receptors, 110 ± 10 nM; at GluN1/2A receptors [1] it was 27 ± 1 nM; on GluN1/2C receptors, 44 ± 2 nM. The “estimated Ki fold higher … (selectivity)” value on GluN1/2A receptors [2] is 4.0 fold.
